According to the supplement of paper PMC12513837:
± gives the standard deviation of the averaged measurements.

Compound: CC(=O)N1CCc2c(c(N3CCCc4cc(-c5cnn(C)c5)c(C(F)F)cc43)nn2C2CCC(CN3CCN(c4ccc5c(c4)C(=O)N(C4CCC(=O)NC4=O)C5=O)CC3)CC2)C1 [CBPD-409]
Assay: AUC of viability dose-response curve (relative to vehicle, 8 doses up to 10 µM) (fraction); higher = less sensitive (more viable); extreme values may be limits of the assay
Experimental: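 PRISM multiplexed pooled barcoded cell line viability screen at the Broad Institute, 887 cancer cell lines treated with CBPD-409 (p300/CBP PROTAC degrader) at 8 concentrations in threefold dilution, top dose 10 µM. The read-out is the area under the dose-response curve of relative viability versus vehicle (n=3). AUC < 0.3 is called strongly sensitive and AUC > 0.8 resistant.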

Test System | AUC of viability dose-response curve
CI1_HAEMATOPOIETIC_AND_LYMPHOID_TISSUE | 0.674
CJM_SKIN | 0.415
CL11_LARGE_INTESTINE | 0.326
CL34_LARGE_INTESTINE | 0.812
CMLT1_HAEMATOPOIETIC_AND_LYMPHOID_TISSUE | 0.666
COGAR359_SOFT_TISSUE | 1
COGE352_BONE | 1
COGN278_AUTONOMIC_GANGLIA | 0.345
COLO320_LARGE_INTESTINE | 1
COLO668_LUNG | 0.615
COLO679_SKIN | 0.3
COLO680N_OESOPHAGUS | 0.653
COLO741_SKIN | 0.559
COLO783_SKIN | 0.837
COLO792_SKIN | 0.804
COLO800_SKIN | 0.67
CORL23_LUNG | 1
CORL88_LUNG | 0.612
CORL105_LUNG | 0.747
CORL279_LUNG | 1
COV318_OVARY | 0.899
COV362_OVARY | 0.887
COV434_OVARY | 0.556
COV644_OVARY | 0.92
CW2_LARGE_INTESTINE | 1

Test System | AUC of viability dose-response curve
CW9019_SOFT_TISSUE | 0.735
DANG_PANCREAS | 1
DAOY_CENTRAL_NERVOUS_SYSTEM | 0.958 ± 0.059
DBTRG05MG_CENTRAL_NERVOUS_SYSTEM | 0.854
DEL_HAEMATOPOIETIC_AND_LYMPHOID_TISSUE | 1
DETROIT562_UPPER_AERODIGESTIVE_TRACT | 0.68
DKMG_CENTRAL_NERVOUS_SYSTEM | 0.733
DL_SOFT_TISSUE | 0.471
DMS53_LUNG | 0.475
DMS273_LUNG | 0.976
DND41_HAEMATOPOIETIC_AND_LYMPHOID_TISSUE | 0.567
DOHH2_HAEMATOPOIETIC_AND_LYMPHOID_TISSUE | 0.468
DOTC24510_CERVIX | 0.344
DU145_PROSTATE | 0.946
DU4475_BREAST | 0.831
DV90_LUNG | 0.588
EB1_HAEMATOPOIETIC_AND_LYMPHOID_TISSUE | 1
EBC1_LUNG | 0.537
ECC2_BILIARY_TRACT | 0.402
ECGI10_OESOPHAGUS | 0.903
EFE184_ENDOMETRIUM | 0.79
EFM19_BREAST | 0.575
EFM192A_BREAST | 0.645
EFO21_OVARY | 0.764
EFO27_OVARY | 1

Test System | AUC of viability dose-response curve
EGI1_BILIARY_TRACT | 0.872
EKVX_LUNG | 1
EM2_HAEMATOPOIETIC_AND_LYMPHOID_TISSUE | 0.613
EMTOKA_ENDOMETRIUM | 0.825
EOL1_HAEMATOPOIETIC_AND_LYMPHOID_TISSUE | 0.207
ES2_OVARY | 0.986
ESS1_ENDOMETRIUM | 0.901
EW8_BONE | 0.946
EWS502_BONE | 0.749 ± 0.15
FADU_UPPER_AERODIGESTIVE_TRACT | 0.844
FLO1_OESOPHAGUS | 0.731
FTC133_THYROID | 0.549
FTC238_THYROID | 0.734
G292CLONEA141B1_BONE | 0.585 ± 0.31
G361_SKIN | 0.186
G402_SOFT_TISSUE | 0.514 ± 0.18
G415_BILIARY_TRACT | 0.902
GAMG_CENTRAL_NERVOUS_SYSTEM | 0.77
GB1_CENTRAL_NERVOUS_SYSTEM | 0.595
GB2_BILIARY_TRACT | 0.826
GCIY_STOMACH | 0.542
GCT27_TESTIS | 0.696
GCT_SOFT_TISSUE | 0.541
GDM1_HAEMATOPOIETIC_AND_LYMPHOID_TISSUE | 0.877
GI1_CENTRAL_NERVOUS_SYSTEM | 0.602

Test System | AUC of viability dose-response curve
GIMEN_AUTONOMIC_GANGLIA | 0.616
GOS3_CENTRAL_NERVOUS_SYSTEM | 0.79
GP2D_LARGE_INTESTINE | 0.847
GP5D_LARGE_INTESTINE | 1
GSS_STOMACH | 0.349
GSU_STOMACH | 0.326
H4_CENTRAL_NERVOUS_SYSTEM | 0.625
H103_UPPER_AERODIGESTIVE_TRACT | 0.997
H157_UPPER_AERODIGESTIVE_TRACT | 0.993
H357_UPPER_AERODIGESTIVE_TRACT | 0.815
H376_UPPER_AERODIGESTIVE_TRACT | 0.862
H413_UPPER_AERODIGESTIVE_TRACT | 0.842
HA1E_KIDNEY | 0.542
HAC2_OVARY | 1
HARA_LUNG | 0.981
HCA1_CERVIX | 0.811
HCC15_LUNG | 1
HCC38_BREAST | 0.323
HCC44_LUNG | 1
HCC56_LARGE_INTESTINE | 0.809
HCC78_LUNG | 0.807
HCC95_LUNG | 1
HCC515_LUNG | 0.612
HCC827_LUNG | 0.731
HCC1143_BREAST | 0.623

Test System | AUC of viability dose-response curve
HCC1195_LUNG | 1
HCC1359_LUNG | 1
HCC1395_BREAST | 0.783
HCC1419_BREAST | 0.122
HCC1428_BREAST | 0.667
HCC1438_LUNG | 0.893
HCC1806_BREAST | 1
HCC1937_BREAST | 0.957
HCC1954_BREAST | 1
HCC2108_LUNG | 0.793
HCC4006_LUNG | 1
HCSC1_CERVIX | 0.357
HCT15_LARGE_INTESTINE | 0.354
HCT116_LARGE_INTESTINE | 0.998
HDMB03_CENTRAL_NERVOUS_SYSTEM | 0.453
HDQP1_BREAST | 0.853
HEC1A_ENDOMETRIUM | 0.407
HEC1B_ENDOMETRIUM | 0.998
HEC1_ENDOMETRIUM | 1
HEC6_ENDOMETRIUM | 0.645
HEC50B_ENDOMETRIUM | 0.851
HEC59_ENDOMETRIUM | 0.677
HEC108_ENDOMETRIUM | 0.693
HEC116_ENDOMETRIUM | 0.78
HEC151_ENDOMETRIUM | 1

Test System | AUC of viability dose-response curve
HEC251_ENDOMETRIUM | 0.841
HEC265_ENDOMETRIUM | 0.695
HEL9217_HAEMATOPOIETIC_AND_LYMPHOID_TISSUE | 0.229
HEL_HAEMATOPOIETIC_AND_LYMPHOID_TISSUE | 0.267
HEP3B217_LIVER | 0.4
HEPG2_LIVER | 1
HEYA8_OVARY | 1
HGC27_STOMACH | 0.316
HH_HAEMATOPOIETIC_AND_LYMPHOID_TISSUE | 1
HKA1_SKIN | 1
HKGZCC_BILIARY_TRACT | 1
HL60_HAEMATOPOIETIC_AND_LYMPHOID_TISSUE | 0.516
HLF_LIVER | 1
HMC18_BREAST | 0.932
HOS_BONE | 0.931 ± 0.027
HOTHC_THYROID | 0.845
HPAC_PANCREAS | 1
HPAFII_PANCREAS | 0.919
HPBALL_HAEMATOPOIETIC_AND_LYMPHOID_TISSUE | 0.878
HS294T_SKIN | 0.929
HS611T_HAEMATOPOIETIC_AND_LYMPHOID_TISSUE | 0.742
HS683_CENTRAL_NERVOUS_SYSTEM | 1
